Source: paper PMC11984388, “A brain-accessible peptide modulates stroke inflammatory response and neurotoxicity by targeting BDNF-receptor TrkB-T1 specific interactome” (Theranostics, 2025)
Residues, ends and D or L forms follow the SMILES beside them. *: point of attachment. Biotin = O=C1N[C@H]2[C@H](CS[C@H]2CCCCC(=O)*)N1

Legend:
Assay type in all cases: in vivo
[1] = Peptide detection in brain cortex after photothrombotic ischemia; details: 3 nmol/g i.v. 1 h after damage, male and female mice sacrificed 5 h post-stroke; Fluorescein Avidin D (Fig 5C)
Protocol: Vehicle (saline), Bio-TMyc or Bio-TT1Ct (3 nmol/g) were retro-orbitally injected in mice one hour after induction of photothrombotic damage or, alternatively, undamaged animals. In the first case, animals were sacrificed 5 h after damage induction while, the second group was sacrificed 30 min after peptide administration. The details of brain fixation and cryoprotection for peptide visualization and/or immunohistochemistry are provided in the Supplementary material. […]
Finally, the sa mple s were mounted in Prolong Diamond. The images were acquired using an inverted Zeiss LSM 710 laser confocal microscope (Jena, Germany) with a 40x or 63x Plan-Apochromatic oil immersion objective. Images corre spond to single se ctions and were normalized for eac h colour se para tely and process ed for presenta tion with ImageJ (NIH Image) and Fiji.
Peptide visualization and immunohistochemis tr y in brain cortex
For peptide visua liz ation in undamaged or damaged brains, animals were deeply anes thetized and intra cardially perfus ed with cold PBS and 4% paraformalde hyde in PBS. Brains were post-fixed in the sa m e fixative at 4°C for 24 h and cryoprote cted in 30% suc ros e for 48 h at 4°C. […]

[2] = tested on: CD68+ cells; experiment: Immunohistochemistry of macrophages/activated microglia in ischemic brain; details: male mice, 3 nmol/g, 24 h of insult; versus TMyc
Protocol: (§1) The brains of animals injected one hour af ter the initiation of the photothrombotic damage with vehicle (saline), TMyc or TT1Ct (3 nmol/g) were process ed and cryoprote cted as before indicated. The duration of damage before sa cri f i ce was 5 h (male and female) or 24 h (male).
(§2) Coronal froze n se ctions were incubated with blocking solution as des cribe d in flota tion for 1 h at room temperature and then overnight with prima ry antibodies diluted in 4% goat se rum and 0.3% Triton X-100 in PBS at 4°C. After was hing, slides were incubated 1 h with Alexa Fluor 546- conjugated goat anti-rabbit or AlexaFluor 647- conjugated goat anti-mouse se condary antibodies to visua liz e the prima ry antibodies and DAPI (5 μg/ml). Only for Iba1 sta ining, blocking solution was 2.5% BS A, 5% goat se rum, 0.5% Triton X-100 in PBS, and se ctions were incubated with prima ry antibody 24 h at RT follow ed by was hing and Alexa Fluor 546-conjugated goat anti-rabbit and DAPI incubation for 1 h. Sections were then was hed in PBS, mounted on slides , dried for 15 min at 37 °C on a hot plate, or air dried overnight and then cover slipped with DPX or Prolong Diamond. Ce ll Obs erve d images were obtained with Zeiss microscope Observe r.Z1 using a 10x Plan-Apochromatic objective. […]

[3] = tested on: Iba1; experiment: Immunohistochemistry of microglia in ischemic brain; details: male mice, 3 nmol/g, 24 h of insult; versus TMyc
Protocol: as §1, §2

Row | Molecule | Time of peptide detection in brain cortex after administration [1] | Effect on CD68+ cells in the infarct and surrounding tissues [2] | Effect on Iba1 in reactive microglia [3]
1 | CC[C@H](C)[C@H](NC(=O)[C@H](CC(C)C)NC(=O)[C@H](CCCCN)NC(=O)[C@H](CCC(N)=O)NC(=O)[C@H](CCC(=O)O)NC(=O)[C@H](CCC(=O)O)NC(=O)[C@H](C)NC(=O)[C@H](CCCNC(=N)N)NC(=O)[C@H](CCCNC(=N)N)NC(=O)[C@H](CCCNC(=N)N)NC(=O)[C@H](CCC(N)=O)NC(=O)[C@H](CCCNC(=N)N)NC(=O)[C@H](CCCNC(=N)N)NC(=O)[C@H](CCCCN)NC(=O)[C@H](CCCCN)NC(=O)[C@H](CCCNC(=N)N)NC(=O)CNC(=O)[C@H](Cc1ccc(O)cc1)NC(=O)CCCC[C@@H]1SC[C@@H]2NC(=O)N[C@@H]21)C(=O)N[C@@H](CO)C(=O)N[C@@H](CCC(=O)O)C(=O)N[C@@H](CCC(=O)O)C(=O)N[C@@H](CC(=O)O)C(=O)N[C@@H](CC(C)C)C(=O)N[C@@H](CC(C)C)C(=O)N[C@@H](CCCNC(=N)N)C(N)=O [Bio-TMyc, reference compound] (Biotin-YGRKKRRQRRRAEEQKLISEEDLLR-NH2) | at least 4 h |  | 
2 | Ac-YGRKKRRQRRRPPFVLFHKIPLDG-NH2 [TT1Ct] |  | greatly decreased | limited Iba1 upregulation
